pEC50: −log10 of the molar value.
The compounds below were run against RNP_CAL (PB2, PB1, PA, NP, influenza A Luciferase reporter in 293T cells) (Influenza A virus (strain swl A/California/04/2009 H1N1), UniProt C3W5S0) (assay: cell-based).

Compound	pEC50
O=c1cnn2c(c1O)-c1nccn1C[C@@H]2[C@H](c1cccc(F)c1)c1ccc(F)cc1Br [Example 36, (S)-6-((R)-(2-bromo-4-fluorophenyl)(3-fluorophenyl)methyl)-11-hydroxy-5,6-dihydro-10H-imidazo[2′,1′:3,4]pyrazino[1,2-b]pyridazin-10-one]	7.57
O=c1cnn2c(c1O)-c1nccn1C[C@@H]2[C@@H](c1ccc(F)cc1)c1cc(F)cc(F)c1 [Example 34, (S)-6-((S)-(3,5-difluorophenyl)(4-fluorophenyl)methyl)-11-hydroxy-5H-imidazo[2′,1′:3,4]pyrazino[1,2-b]pyridazin-10(6H)-one]	7.60
O=c1cnn2c(c1O)-c1nccn1C[C@@H]2[C@@H](c1ccc(F)cc1)c1ccccc1Cl [Example 29, (S)-6-((S)-(2-chlorophenyl)(4-fluorophenyl)methyl)-11-hydroxy-5,6-dihydro-10H-imidazo[2′,1′:3,4]pyrazino[1,2-b]pyridazin-10-one]	7.14
O=c1cnn2c(c1O)-c1nccn1CC2C(c1ccc(F)cc1)c1ccc(F)cc1 (stereo not drawn) [Example 12, 6-(bis(4-fluorophenyl)methyl)-11-hydroxy-5H-imidazo[2′,1′:3,4]pyrazino[1,2-b]pyridazin-10(6H)-one]	6.10
O=C(c1cnc2n1C[C@H](C(c1ccccc1)c1ccccc1)n1ccc(=O)c(O)c1-2)N1CCCC1 [Example 72, (S)-6-benzhydryl-11-hydroxy-3-(pyrrolidine-1-carbonyl)-5,6-dihydro-10H-imidazo[1,2-a]pyrido[2,1-c]pyrazin-10-one]	5.77
CC(C)C(=O)Oc1c2n(ncc1=O)[C@@H](C(c1ccc(F)cc1)c1ccc(F)cc1)Cn1ccnc1-2 [Example 86, (S)-6-(bis(4-fluorophenyl)methyl)-10-oxo-5,6-dihydro-10H-imidazo[2′,1′:3,4]pyrazino[1,2-b]pyridazin-11-yl isobutyrate]	7.68
O=c1cnn2c(c1O)-c1nccn1CC2C(c1cccc(Cl)c1)c1cccc(Cl)c1 (stereo not drawn) [Example 11, 6-(bis(3-chlorophenyl)methyl)-11-hydroxy-5H-imidazo[2′,1′:3,4]pyrazino[1,2-b]pyridazin-10(6H)-one]	7.10
O=c1ccn2c(c1O)-c1ncc(CN3CCSCC3)n1C[C@@H]2C(c1ccccc1)c1ccccc1 [Example 62, (S)-6-benzhydryl-11-hydroxy-3-(thiomorpholinomethyl)-5,6-dihydro-10H-imidazo[1,2-a]pyrido[2,1-c]pyrazin-10-one]	6.19
O=c1ccn2c(c1O)-c1nccn1CN2C1c2ccccc2CSc2ccccc21 (stereo not drawn) [Example 74, 6-(6,11-dihydrodibenzo[b,e]thiepin-11-yl)-11-hydroxy-5,6-dihydro-10H-imidazo[1,2-d]pyrido[2,1-f][1,2,4]triazin-10-one]	7.08
O=c1ccn2c(c1O)-c1nccn1C(C1CC1)N2C(c1ccccc1)c1ccccc1 (stereo not drawn) [Example 73, 6-benzhydryl-5-cyclopropyl-11-hydroxy-5,6-dihydro-10H-imidazo[1,2-d]pyrido[2,1-f][1,2,4]triazin-10-one]	6.77
O=c1cnn2c(c1O)-c1nccn1C[C@@H]2C(c1cccc(Cl)c1)c1cccc(Cl)c1 [Example 15, (S)-6-(bis(3-chlorophenyl)methyl)-11-hydroxy-5H-imidazo [2′,1′:3,4] pyrazino [1,2-b]pyridazin-10(6H)-one]	7.60
O=c1cnn2c(c1O)-c1nccn1C[C@@H]2[C@@H](c1ccc(F)cc1)c1cccc(Cl)c1 [Example 31, (S)-6-((S)-(3-chlorophenyl)(4-fluorophenyl)methyl)-11-hydroxy-5,6-dihydro-10H-imidazo[2′,1′:3,4]pyrazino[1,2-b]pyridazin-10-one]	7.43
O=c1cnn2c(c1O)-c1nccn1C[C@@H]2C(c1ccc(F)cc1)c1ccc(F)cc1 [Example 22, (S)-6-(bis(4-fluorophenyl)methyl)-11-hydroxy-5,6-dihydro-10H-imidazo[2′,1′:3,4]pyrazino[1,2-b]pyridazin-10-one]	7.09
O=c1ccn2c(c1O)-c1ncsc1CN2C(c1ccccc1)c1ccccc1 [Example 81, 5-benzhydryl-10-hydroxy-4,5-dihydro-9H-pyrido[1,2-b]thiazolo[4,5-d]pyridazin-9-one]	5.15
O=c1cnn2c(c1O)-c1nccn1C[C@@H]2[C@@H](c1ccc(F)cc1)c1ccc(F)c(F)c1 [Example 25, (S)-6-((S)-(3,4-difluorophenyl)(4-fluorophenyl)methyl)-11-hydroxy-5H-imidazo[2′,1′:3,4]pyrazino[1,2-b]pyridazin-10(6H)-one]	7.25
O=c1cnn2c(c1O)-c1nccn1C[C@H]2C(c1cccc(Cl)c1)c1cccc(Cl)c1 [Example 16, (R)-6-(bis(3-chlorophenyl)methyl)-11-hydroxy-5H-imidazo[2′,1′:3,4] pyrazino [1,2-b]pyridazin-10(6H)-one]	6.09
N#Cc1cnc2n1C[C@H](C(c1ccc(F)cc1)c1ccc(F)cc1)n1ncc(=O)c(O)c1-2 [Example 49, (S)-6-(bis(4-fluorophenyl)methyl)-11-hydroxy-10-oxo-5,6-dihydro-10H-imidazo[2′,1′:3,4]pyrazino[1,2-b]pyridazine-3-carbonitrile]	6.09
O=C(NC1CC1)c1cnc2n1C[C@H](C(c1ccccc1)c1ccccc1)n1ccc(=O)c(O)c1-2 [Example 70, (S)-6-benzhydryl-N-cyclopropyl-11-hydroxy-10-oxo-5,6-dihydro-10H-imidazo[1,2-a]pyrido[2,1-c]pyrazine-3-carboxamide]	5.77
O=c1ccn2c(c1O)-c1ncc(CNC3CCOCC3)n1C[C@@H]2C(c1ccccc1)c1ccccc1 [Example 65, (S)-6-benzhydryl-11-hydroxy-3-(((tetrahydro-2H-pyran-4-yl)amino)methyl)-5,6-dihydro-10H-imidazo[1,2-a]pyrido[2,1-c]pyrazin-10-one]	5.46
O=c1cnn2c(c1O)-c1nc(Br)c(Br)n1C[C@@H]2C(c1ccc(F)cc1)c1ccc(F)cc1 [Example 48, (S)-6-(bis(4-fluorophenyl)methyl)-2,3-dibromo-11-hydroxy-5,6-dihydro-10H-imidazo[2′,1′:3,4]pyrazino[1,2-b]pyridazin-10-one]	5.37
Cc1cc(F)ccc1[C@H](c1ccc(F)cc1)[C@H]1Cn2ccnc2-c2c(O)c(=O)cnn21 [Example 27, (S)-6-((S)-(4-fluoro-2-methylphenyl)(4-fluorophenyl)methyl)-11-hydroxy-5,6-dihydro-10H-imidazo[2′,1′:3,4]pyrazino[1,2-b]pyridazin-10-one]	7.30
CSc1cccc([C@H](c2ccc(F)cc2)[C@H]2Cn3ccnc3-c3c(O)c(=O)cnn32)c1 [Example 28, (S)-6-((S)-(4-fluorophenyl)(3-(methylthio)phenyl)methyl)-11-hydroxy-5,6-dihydro-10H-imidazo[2′,1′:3,4]pyrazino[1,2-b]pyridazin-10-one]	7.09
CCc1cnc2n1C[C@H](C(c1ccccc1)c1ccccc1)n1ccc(=O)c(O)c1-2 [Example 9, (S)-6-benzhydryl-3-ethyl-11-hydroxy-5H-imidazo[1,2-a]pyrido[2,1-c]pyrazin-10(6H)-one]	6.24
CC(O)c1cnc2n1C[C@H](C(c1ccccc1)c1ccccc1)n1ccc(=O)c(O)c1-2 (stereo partly drawn) [Example 55, (6S)-6-benzhydryl-11-hydroxy-3-(1-hydroxyethyl)-5H-imidazo[1,2-a]pyrido[2,1-c]pyrazin-10(6H)-one]	5.77
